The values below are quoted from earlier work in US20130136780A1, “CROSSLINKED POLYSACCHARIDE GEL COMPOSITIONS FOR MEDICAL AND COSMETIC APPLICATIONS” (ALLERGAN, INC., priority 2007, published 2013).

The conditions of this series: osteoarthritis patient, intra-articular injection of 40 mg; Selvi et al. 2004.

As to `CC(C)(C)CC(=O)OCC(=O)[C@@]12OC(C)(C)O[C@@H]1C[C@H]1[C@@H]3CCC4=CC(=O)C=C[C@]4(C)[C@@]3(F)[C@@H](O)C[C@@]12C` [triamcinolone hexacetonide], the “adverse outcome after intra-articular injection (case report)” value is listed as “developed acute arthritis induced by the injected triamcinolone crystals”.
